Like-named read-outs stand apart in the source and are kept apart here.
Tests used:
Format in all cases: in vivo, Cynomolgus monkeys
[1] = system: hypersensitivity in the esophagus evoked by hydrochloric acid perfusion; experiment: Hypersensitivity model evoked by acid (nociceptive threshold to esophageal electrical stimulation)
Protocol: Cynomolgus monkeys (aged 4 to 6 years, female, Japan Laboratory Animals, Inc., no history of administration) were acclimated to a monkey chair for 2 days or more, and were fasted for 12 hours or more. After that, on the day of experiment, the monkeys were immobilized in the monkey chair after the measurement of body weight, and were acclimated for another one hour or more. An electrostimulation catheter was inserted from a nostril, and electrical stimulation was applied at the position approximately 10 cm above the cardiac part of stomach (the upper esophagus). […] This was carried out three times every 2 to 3 minutes at each evaluation time point, and the average value was used as a nociceptive threshold at each time point. Saline or hydrochloric acid (1.5 N) was perfused from the position approximately 3 cm above the cardiac region (the lower esophagus) to the stomach at an injection rate of 160 mL/h for 30 minutes. The nociceptive thresholds were measured before and after perfusion of saline in the esophagus, before perfusion of hydrochloric acid in the esophagus and at 0, 30, 60, 90 and 120 minutes after perfusion of hydrochloric acid in the esophagus. The vehicle or Compound A (0.01 and 0.1 mg/kg, respectively) was subcutaneously administered 30 minutes before the start of the perfusion of hydrochloric acid. […] The endpoint was assessed by comparing the nociceptive thresholds before and after perfusion of hydrochloric acid, the nociceptive threshold of the vehicle-administered group at each time point and the nociceptive threshold of the Compound A-administered group at each time point. […]

[2] = system: hypersensitivity in the esophagus evoked by continuous electrical stimulation; experiment: Hypersensitivity model evoked by electrical stimulation (nociceptive threshold)
Protocol: Cynomolgus monkeys (aged 4 to 6 years, female, Japan Laboratory Animals, Inc., no history of administration) were acclimated to a monkey chair for 2 days or more, and were fasted for 12 hours or more. After that, on the day of experiment, the monkeys were immobilized in the monkey chair after the measurement of body weight, and were acclimated for another one hour or more. An electrostimulation catheter was inserted from a nostril, and electrical stimulation was applied at the position approximately 10 cm above the cardiac part of stomach (the upper esophagus). […] This was carried out three times every 2 to 3 minutes at each evaluation time point, and the average value was used as a nociceptive behavior threshold at each time point. Hypersensitivity was induced by continuous electrical stimulation to the position approximately 3 cm above the cardiac region (the lower esophagus). That is, an electrostimulation catheter was inserted from a nostril, and electrical stimulation was applied at the position of the lower esophagus for 30 minutes. […] The endpoint was assessed by comparing the nociceptive thresholds before and after continuous electrical stimulation, the nociceptive threshold of the vehicle-administered group at each time point and the nociceptive threshold of the Compound A-administered group at each time point. […]

[3] = Evaluation of penetration into the center (plasma, CSF and tissue concentration by LC/MS/MS); conditions: female, cynomolgus monkey, subcutaneous, 0.1 mg/kg s.c., 180 minutes after administration; for concentration at 180 min: n=3
Protocol: Cynomolgus monkeys (aged 4 to 6 years, female, Japan Laboratory Animals, Inc., no history of administration) were immobilized in a monkey chair, and Compound A was subcutaneously administered thereto (0.1 mg/kg), followed by collecting blood at 180 minutes after administration. The blood samples were centrifuged at 10000 g at 4° C. for 3 minutes to collect plasma. Next, the cerebrospinal fluid was collected under anesthesia by intravenous administration of pentobarbital sodium, and the lower esophagus, the upper esophagus, the dorsal root ganglion, the spinal cord and the brain stem were then collected. Furthermore, the dorsal root ganglion and the spinal cord were collected from the first to sixth thoracic spinal cord, which controls esophageal nerves. To the collected tissue, 4 times the amount of saline per wet weight of each tissue was added, followed by homogenization using Physcotron to obtain each tissue homogenate. The number of animals was 3.
The concentration of Compound A in each tissue was measured by a LC/MS/MS method.
To the samples for 50 μL of a calibration curve and test samples of Compound A, 1 mL of ultrapure water and an internal standard substance were added under ice cold conditions, followed by stirring. To a solid phase extraction cartridge (OAS1S MAX 30 mg/1 cc, Waters Corporation) which had been conditioned in advance, each sample was loaded and washing was carried out, followed by centrifugation, and a cleaning liquid was discharged from the cartridge for drying. Further, elution was carried out with 1 mL of an acetonitrile/acetic acid mixed liquid (49:1), and the eluate was concentrated and dried under a current of nitrogen (40° C. or less). The residue was redissolved in 200 μL of a methanol/0.1 vol % acetic acid solution (70: 30) to obtain a sample for the measurement of LC/MS/MS.
The analysis by LC/MS/MS was carried out under the following conditions.
Measuring device: Nanospace 3033 (Shiseido Co., Ltd.) Analysis column: SunFire C18 3.5 μm (2.1 mm i.d.×100 mm, 3.5 μm, Waters Corporation) Mobile phase: Acetonitrile/0.1 vol % acetic acid solution (70: 30) Cleaning liquid for cleaning port (one component): 2-propanol Cleaning liquid for cleaning port (two components): Mobile phase [acetonitrile/0.1 vol % acetic acid solution (70: 30)] Flow rate: 0.2 mL/min Column temperature: 35° C. Sample temperature: 4° C. Analysis time: 13 minutes
Measuring device: API4000 (AB SCIEX) Ion source: ESI Scan type: MRM
Using the peak area ratio (standard substance/internal standard substance) obtained by the measurement of a sample for a calibration curve, the calibration curve (y=aX+b, Y: Peak area ratio, X: Concentration) was made from the single regression line by the least squares method, and the peak area ratios of test samples were applied to the calibration curve to calculate a measured value.

[4] = system: transient lower esophageal sphincter relaxation; experiment: Action on transient lower esophageal sphincter relaxation (TLESR) (2); conditions: 0.01 and 0.1 mg/kg s.c. 30 min before high-fat diet and air injection; measured for 45 minutes; vs vehicle-administered group; FIG. 3
Protocol: Cynomolgus monkeys (aged 4 to 6 years, female, Japan Laboratory Animals, Inc., no history of administration) were acclimated to a monkey chair for 2 days or more, and were fasted for 12 hours or more. After that, on the day of experiment, the monkeys were immobilized in the monkey chair after the measurement of body weight, and was acclimated for another one hour or more. A high-fat diet/air injection catheter and a sensor catheter for measuring pressure were inserted from a nostril and the oral cavity. A high-fat diet was injected into the stomach so that the final volume would be 80 mL, and air was then injected up to a pressure in the stomach of 20 mmHg, and maintained. The pressure in the esophagus was measured by a sensor catheter in the lower esophageal sphincter region and the positions approximately 2, 3 and 6 cm above the lower esophageal sphincter. […] The frequency of TLESR was measured for 45 minutes from the injection of high-fat diet to the end of ventilation. Here, TLESR was measured considering that the relaxation response of the lower esophageal sphincter region was longer by […] and was not elicited by peristaltic motion occurring in the esophagus, and the rate of reduction of pressure was greater than […], and measured. […]

## Cc1cc(C(=O)O)ccc1COc1cc2c(cc1N(CC(C)C)S(=O)(=O)c1nccs1)CCC2 [Compound A, 4-[({6-[isobutyl(1,3-thiazol-2-ylsulfonyl)amino]-2,3-dihydro-1H-inden-5-yl}oxy)methyl]-3-methyl benzoic acid]
[1]; 0.1 mg/kg s.c. 30 min before HCl perfusion, FIG. 1
  nociceptive threshold after hydrochloric acid perfusion: suppressed to a normal level
[1]; Compound A 0.01 and 0.1 mg/kg s.c. 30 min before HCl (1.5 N) perfusion, vs control group, FIG. 1
  decrease in nociceptive threshold after hydrochloric acid perfusion: dose-dependently suppressed
[1]; Compound A-administered groups, s.c., time after end of HCl perfusion
  duration of suppressive action after hydrochloric acid perfusion: ≥ 120 min
[2]; 0.1 mg/kg s.c. 30 min before 30 min electrical stimulation of lower esophagus, FIG. 2
  decrease in nociceptive threshold after continuous electrical stimulation: suppressed to a normal level
[2]; 0.1 mg/kg s.c., time after end of continuous electrical stimulation
  duration of suppressive action after continuous electrical stimulation: ≥ 120 min
[3]; brain stem / plasma, read-out: percentage to the concentration in plasma, brain stem tissue
  Kp at 180 min: 0.057
[3]; brain stem, tissue homogenate, read-out: average concentration in brain stem tissue
  concentration at 180 min: 0.22 ng/mL
[3]; cerebrospinal fluid / plasma, read-out: percentage to the concentration in plasma, cerebrospinal fluid
  Kp at 180 min: 0.019
[3]; cerebrospinal fluid, read-out: average concentration in cerebrospinal fluid
  concentration at 180 min: 0.07 ng/mL
[3]; dorsal root ganglion / plasma, read-out: percentage to the concentration in plasma, dorsal root ganglion
  Kp at 180 min: 0.163
[3]; dorsal root ganglion, tissue homogenate, read-out: average concentration in dorsal root ganglion
  concentration at 180 min: 0.62 ng/mL
[3]; lower esophagus / plasma, read-out: percentage to the concentration in plasma, lower esophagus
  Kp at 180 min: 0.067
[3]; lower esophagus, tissue homogenate, read-out: average concentration in lower esophagus
  concentration at 180 min: 0.25 ng/mL
[3]; plasma, read-out: average concentration in plasma
  concentration at 180 min: 3.79 ng/mL
[3]; spinal cord / plasma, read-out: percentage to the concentration in plasma, spinal cord
  Kp at 180 min: 0.051
[3]; spinal cord, tissue homogenate, read-out: average concentration in spinal cord
  concentration at 180 min: 0.19 ng/mL
[3]; upper esophagus / plasma, read-out: percentage to the concentration in plasma, upper esophagus
  Kp at 180 min: 0.073
[3]; upper esophagus, tissue homogenate, read-out: average concentration in upper esophagus
  concentration at 180 min: 0.28 ng/mL
[4]
  frequency of TLESR: dose-dependently decreased

Reference: patent US20140039004A1, “METHOD OF TREATING OF GASTROESOPHAGEAL REFLUX DISEASE” (ONO PHARMACEUTICAL CO., LTD., priority 2012, published 2014)
